The source of these data is patent publication US7332489B2, “Methods and compositions of novel triazine compounds” (Reddy US Therapeutics, Inc., priority 2003, dated 2008).

For this series, the system named is TNF-α induced IL-6. Nature of the series: TNF-α-induced IL-6 production determined by IL-6 ELISA. The series is classed as cell-based. To be noted: for inhibition at 10 µM: read-out: Inflammation Data, inhibition at 10 uM; for Inflammation Data (result in words): concentration not given; for activity at 10 µM: class = % of control IL6 production. How it is done:
Human aortic endothelial cells (HAEC, Clonetics) were cultured according to manufacturer in growth medium (Clonetics): basal medium containing human epidermal growth factor, hydrocortisone, vascular endothelial growth factor, heparin binding growth factor-B, long R3-insulin-like growth factor-1, ascorbic acid, gentamicin/amphotericin and 5% FBS. These cell were allowed to reach at least 90% confluency before subjected to experimental treatments. […] Tumor necrosis factor α was from R&D Systems.
All treatments, compound-added and controls were carried out in serum free media containing 0.2% albumin. Media from all conditions were collected and used for IL-6 ELISA.
IL-6 ELISA was carried out using human IL-6 DuoSet ELISA development kit as described by manufacturer (R&D Systems). Mouse anti-human Il-6 was used as the capture antibody (2 ug/ml) and biotinylated goat anti-human IL-6 (200 ng/ml) was used as the detection antibody. Culture media were incubated with capture antibody (in 96 well) for 2 h at room temperature. Wells were washed three times with wash buffer (0.05% tween-20 in phosphate buffered saline (PBS) pH 7.4) followed by incubation with detection antibody for 2 h at room temperature. Following three washes wells were incubated with Streptavidin-HRP for 20 min. Color development was read at 450 nm in a Microplate reader.
On the technique in general: In an ELISA, binding on a coated surface is turned into a signal by an enzyme label.

Setting [1] is: Homo sapiens, 24 h, Table 5, second part, column 1, read-out: Inhibition of TNF-induced IL6, production.
[2] abbreviates: Homo sapiens, 24 h, Table 5, first part, read-out: Inhibition of TNF-induced IL6 production.

Where two headings read alike, the source gives them in different places.

As usually defined, the inhibition is the drop in the measured response relative to a control, in per cent. `COc1ccc(Nc2nc(NC3CCCCCC3)nc(OC3CCCNC3)n2)cc1Cl` (stereo not drawn): the “Inflammation Data, cell death at 10 uM” value (10 uM) was 20%. Further, the inhibition at 10 µM (Homo sapiens, 10 uM) is 60%.
Regarding `COc1ccc(Nc2nc(NC3CCCCCC3)nc(OC3CCNCC3)n2)cc1Cl`, the “Inflammation Data, cell death at 10 uM” value (10 uM) turned out to be 20%.
Consider `COc1ccc(Nc2nc(NC3CCCCCC3)nc(OCC3CCCN3C)n2)cc1Cl` (stereo not drawn), for which, where the note is “10 uM”, the “Inflammation Data, cell death at 10 uM” value is “total cell death” and the “Inflammation Data, inhibition at 10 uM” value was “complete inhibition”.
Regarding `COc1ccc(Nc2nc(NC3CCCCCC3)nc(OCCOc3ccccc3F)n2)cc1Cl`, the “Inflammation Data (result in words)” value is “Not Active”.
As to `COc1ccc(Nc2nc(NC3CCCCCC3)nc(OCc3cccc(C)n3)n2)cc1Cl`, the inhibition at 10 µM (Homo sapiens, 10 uM) turned out to be 60%.
Turning to `CN(c1nc(Nc2ccc(O)cc2)nc(NC2CCCCCC2)n1)C1CCNCC1`, the inhibition at 5 µM (Homo sapiens, read-out: Inflammation Data, inhibition at 5 uM) amounted to 50%. The “Inflammation Data, cell death at 5 uM” value (human, 24 h, 5 µM) is reported as 20%. The “Inflammation Data, cell death at 10 uM” value (human, 24 h, 10 µM) is “total cell death”.
For `COc1ccc(Nc2nc(NC3CCCCCC3)nc(NC3CCNCC3)n2)cc1`, where the note is “5 uM”, the “Inflammation Data, cell death at 5 uM” value is 20%. Besides, the “Inflammation Data, cell death at 10 uM” value (10 uM) was over 50%.
In the case of `COc1ccc(Nc2nc(NC3CC3)nc(N(C)C3CCN(C)CC3)n2)cc1Cl`, the “Inflammation Data (result in words)” value is on record as “Not active”. Also, under “10 uM”, the “Inflammation Data, cell death at 10 uM” value is 15%.
As for `CCN1CCCC1CNc1nc(Nc2ccc3ncccc3c2)nc(NC2CCCCCC2)n1` (stereo not drawn) [Compound 4, N^2-cycloheptyl-N^4-[(1-ethyl-2-pyrrolidinyl)methyl]-N^6-(6-quinolinyl)-1,3,5-triazine-2,4,6-triamine], under setting [1], the activity at 10 µM was 0 to 25%.
Turning to `CCN1CCCC1CNc1nc(Nc2ccc(F)cc2)nc(NC2CCCCCC2)n1` (stereo not drawn) [Compound 10, N^2-cycloheptyl-N^4-[(1-ethyl-2-pyrrolidinyl)methyl]-N^6-(4-fluorophenyl)-1,3,5-triazine-2,4,6-triamine], the activity at 10 µM under setting [1] lay in the range of 0 to 25%.
On to `CCN1CCCC1CNc1nc(Nc2ccc(C#N)cc2)nc(NC2CCCCCC2)n1` (stereo not drawn) [Compound 11, 4-[(4-(cycloheptylamino)-6-{[(1-ethyl-2-pyrrolidinyl)methyl]amino}-1,3,5-triazin-2-yl)-amino]benzonitrile], for which the activity at 10 µM under setting [1] was in the range of 0 to 25%.
Consider `CCN1CCCC1CNc1nc(Nc2ccc3c(c2)OCCO3)nc(NC2CCCCCC2)n1` (stereo not drawn) [Compound 24, N^2-cycloheptyl-N^4-(2,3-dihydro-1,4-benzodioxin-6-yl)-N^6-[(1-ethyl-2-pyrrolidinyl)methyl]-1,3,5-triazine-2,4,6-triamine], for which, under setting [1], the activity at 10 µM lay in the range of 0 to 25%.
As for `CCN1CCCC1CNc1nc(Nc2ccc(N(C)C)cc2)nc(NC2CCCCCC2)n1` (stereo not drawn) [Compound 25, N^2-cycloheptyl-N^4-[4-(dimethylamino)phenyl]-N^6-[(1-ethyl-2-pyrrolidinyl)methyl]-1,3,5-triazine-2,4,6-triamine], the activity at 10 µM under setting [1] was 0 to 25%.
In turn, `CCN(CC)c1ccc(Nc2nc(NCC3CCCN3CC)nc(NC3CCCCCC3)n2)cc1Cl` (stereo not drawn) [Compound 26, N^2-[3-chloro-4-(diethylamino)phenyl]-N^4-cycloheptyl-N^6-[(1-ethyl-2-pyrrolidinyl)methyl]-1,3,5-triazine-2,4,6-triamine] returned a cells floating (HAEC, 10 uM compound, seen in the TNF IL6 test) of over 50%. Moreover, the activity at 10 µM under setting [2] was 0 to 25%.
In the case of `CCN1CCCC1CNc1nc(Nc2ccc(N3CCOCC3)cc2)nc(NC2CCCCCC2)n1` (stereo not drawn) [Compound 27, N^2-cycloheptyl-N^4-[(1-ethyl-2-pyrrolidinyl)methyl]-N^6-[4-(4-morpholinyl)phenyl]-1,3,5-triazine-2,4,6-triamine], the activity at 10 µM runs as follows: under setting [2], 0 to 25%; under setting [1], 0 to 25%.
On to `CCN1CCCC1CNc1nc(Nc2ccc(N3CCN(C)CC3)cc2)nc(NC2CCCCCC2)n1` (stereo not drawn) [Compound 28, N^2-cycloheptyl-N^4-[(1-ethyl-2-pyrrolidinyl)methyl]-N^6-[4-(4-methyl-1-piperazinyl)phenyl]-1,3,5-triazine-2,4,6-triamine], for which the activity at 10 µM under setting [2] fell in the range of 0 to 25%.
As to `CCN1CCCC1CNc1nc(Nc2ccc(NC(C)=O)cc2)nc(NC2CCCCCC2)n1` (stereo not drawn) [Compound 29, N-{4-[(4-(cycloheptylamino)-6-{[(1-ethyl-2-pyrrolidinyl)methyl]amino}-1,3,5-triazin-2-yl)-amino]phenyl}acetamide], the activity at 10 µM lay in the range of 0 to 25% under setting [2] and 0 to 25% under setting [1].
Turning to `CCN1CCCC1CNc1nc(Nc2cccc(NC(C)=O)c2)nc(NC2CCCCCC2)n1` (stereo not drawn) [Compound 30, N-{3-[(4-(cycloheptylamino)-6-{[(1-ethyl-2-pyrrolidinyl)methyl]amino}-1,3,5-triazin-2-yl)-amino]phenyl}acetamide], the activity at 10 µM is, setting by setting: under setting [2], 0 to 25%; under setting [1], 0 to 25%.
On to `CCOc1ccc(Nc2nc(NCC3CCCN3CC)nc(NC3CCCCCC3)n2)cc1` (stereo not drawn) [Compound 32, N^2-cycloheptyl-N^4-(4-ethoxyphenyl)-N^6-[(1-ethyl-2-pyrrolidinyl)methyl]-1,3,5-triazine-2,4,6-triamine], for which, under setting [1], the activity at 10 µM is 0 to 25%.
Turning to `CCN1CCCC1CNc1nc(Nc2ccccn2)nc(NC2CCCCCC2)n1` (stereo not drawn) [Compound 34, N^2-cycloheptyl-N^4-[(1-ethyl-2-pyrrolidinyl)methyl]-N^6-(2-pyridinyl)-1,3,5-triazine-2,4,6-triamine], the activity at 10 µM is, setting by setting: under setting [2], 0 to 25%; under setting [1], 0 to 25%.
Take `CCN1CCCC1CNc1nc(Nc2ccccc2C)nc(NC2CCCCCC2)n1` (stereo not drawn) [Compound 35, N^2-cycloheptyl-N^4-[(1-ethyl-2-pyrrolidinyl)methyl]-N^6-(2-methylphenyl)-1,3,5-triazine-2,4,6-triamine]: the activity at 10 µM by setting is: under setting [2], 25 to 50%; under setting [1], 0 to 25%.
On to `CCN1CCCC1CNc1nc(NC2CCCCCC2)nc(N(C)c2ccc(Cl)cc2)n1` (stereo not drawn) [Compound 40, N^2-(4-chlorophenyl)-N^4-cycloheptyl-N^6-[(1-ethyl-2-pyrrolidinyl)methyl]-N^2-methyl-1,3,5-triazine-2,4,6-triamine], for which the activity at 10 µM under setting [1] lay in the range of 0 to 25%.
Take `CCN1CCCC1CNc1nc(NC2CCCCCC2)nc(N(CCC#N)c2ccccc2)n1` (stereo not drawn) [Compound 41, 3-[(4-(cycloheptylamino)-6-{[(1-ethyl-2-pyrrolidinyl)methyl]amino}-1,3,5-triazin-2-yl)-(phenyl)amino]propanenitrile]: under setting [1], the activity at 10 µM lay in the range of 0 to 25%.
`CCN1CCCC1CNc1nc(NC2CCCCCC2)nc(N(C)c2ccc(OC)cc2)n1` (stereo not drawn) [Compound 42, N^2-cycloheptyl-N^4-[(1-ethyl-2-pyrrolidinyl)methyl]-N^6-(4-methoxyphenyl)-N^6-methyl-1,3,5-triazine-2,4,6-triamine]: the activity at 10 µM by setting is: under setting [2], 0 to 25%; under setting [1], 0 to 25%.
With `CCN1CCCC1CNc1nc(NC2CCCCCC2)nc(N(C)c2ccc(F)cc2F)n1` (stereo not drawn) [Compound 43, N^2-cycloheptyl-N^4-(2,4-difluorophenyl)-N^6-[(1-ethyl-2-pyrrolidinyl)methyl]-N^4-methyl-1,3,5-triazine-2,4,6-triamine], under setting [1], the activity at 10 µM fell in the range of 0 to 25%.
On to `CCN1CCCC1CNc1nc(NC2CCCCCC2)nc(N(CC#N)c2ccccc2)n1` (stereo not drawn) [Compound 44, [(4-(cycloheptylamino)-6-{[(1-ethyl-2-pyrrolidinyl)methyl]amino}-1,3,5-triazin-2-yl)(phenyl)amino]acetonitrile], for which, under setting [1], the activity at 10 µM lay in the range of 0 to 25%.
Same read-out and setting: for `CCN1CCCC1CNc1nc(NC2CCCCCC2)nc(N(C)c2cccc(Cl)c2)n1` (stereo not drawn) [Compound 45, N^2-(3-chlorophenyl)-N^4-cycloheptyl-N^6-[(1-ethyl-2-pyrrolidinyl)methyl]-N^2-methyl-1,3,5-triazine-2,4,6-triamine] the value was 0 to 25%; for `CCN1CCCC1CNc1nc(NC2CCCCCC2)nc(N(C)c2ccccc2C(F)(F)F)n1` (stereo not drawn) [Compound 46, N^2-cycloheptyl-N^4-[(1-ethyl-2-pyrrolidinyl)methyl]-N^6-methyl-N^6-[2-(trifluoromethyl)phenyl]-1,3,5-triazine-2,4,6-triamine], 0 to 25%.
`CCN1CCCC1CNc1nc(Nc2ccc(OC)c(Cl)c2)nc(NC2CCCCCC2)n1` (stereo not drawn) [Compound 48, N^2-(3-chloro-4-methoxyphenyl)-N^4-cycloheptyl-N^6-[(1-ethyl-2-pyrrolidinyl)methyl]-1,3,5-triazine-2,4,6-triamine]: the activity at 10 µM under setting [2] lay within 25 to 50%.
For `CCNc1nc(NCC2CCCN2CC)nc(Nc2ccc(OC)c(F)c2)n1` (stereo not drawn) [Compound 51, N^2-ethyl-N^4-[(1-ethyl-2-pyrrolidinyl)methyl]-N^6-(3-fluoro-4-methoxyphenyl)-1,3,5-triazine-2,4,6-triamine], the activity at 10 µM under setting [2] was 0 to 25%.
As to `CCN1CCCC1CNc1nc(Nc2ccc(OC)c(F)c2)nc(NC(C)(C)C)n1` (stereo not drawn) [Compound 52, N^2-(tert-butyl)-N^4-[(1-ethyl-2-pyrrolidinyl)methyl]-N^6-(3-fluoro-4-methoxyphenyl)-1,3,5-triazine-2,4,6-triamine], the activity at 10 µM was 0 to 25% under setting [2] and 25 to 50% under setting [1].
